Measurements taken from US6706663B2, “Herbicidal 3-heterocyclic substituted benzisothiazole and benzisoxazole compounds” (Wyeth, priority 2000, dated 2004).

Legend:
[1] = tested on: IPOHE (Ipomoea hederacea); test: Postemergence herbicidal evaluation; format: in vivo, (L.) Jacq.; conditions: postemergence
Outline: (§1)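 Seedlings grown about two weeks in flats, sprayed, then kept under standard greenhouse care. Rated visually 4–5 weeks after treatment on a 0–9 scale (stand, vigour, malformation, size, chlorosis, overall appearance) relative to untreated control; repeat tests averaged.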

[2] = tested on: ABUTH (Abutilon theophrasti); test: Preemergence herbicidal evaluation; format: in vivo, Medic.; conditions: rated 4-5 weeks after treatment
ORYSAT (Rice, Tebonnet) [3] = test: Flooded paddy, post-transplant rice tolerance; format: in vivo, Oryza sativa, (L.) Tebonnet; conditions: flooded paddy, post-transplant rice, rated 3-4 weeks after treatment, 0-9 rating scale
Outline: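 Ten-day-old seedlings, 2/pot, silt loam; flood kept 1.5–3 cm over soil; herbicide applied post-transplant; greenhouse; score 0–9 visual vs control.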

[4] = tested on: SAGPY (Sagittaria pygmaea); test: Flooded paddy, preemergence weed control; format: in vivo, L.; conditions: rated 3-4 weeks after treatment, 0-9 rating scale
Outline: (§2)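 Silt loam, sowing depth ≤0.5 cm; permanent flood 1.5–3 cm above soil; greenhouse culture after treatment. Readout: 0-9 visual scale (stand, vigor, malformation, size, chlorosis, appearance) vs control.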

[5] = tested on: CASOB (Cassia obtusifolia); test: Preemergence herbicidal evaluation; format: in vivo, L.; conditions: rated 4-5 weeks after treatment
Outline: (§3)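 Seeds planted in potting soil cups and sprayed preemergence with aqueous acetone compound solution. Greenhouse-grown; rated 4–5 weeks after treatment on a 0-9 visual scale (stand, vigor, malformation, size, chlorosis, appearance) versus control.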

[6] = tested on: AMBEL (Ambrosia artemisifolia); test: Preemergence herbicidal evaluation; format: in vivo, L.; conditions: rated 4-5 weeks after treatment
Outline: as §3

[7] = tested on: CHEAL (Chenopodium album); test: Preemergence herbicidal evaluation; format: in vivo, L.; conditions: rated 4-5 weeks after treatment
Outline: as §3

ORYSAT (Rice, Tebonnet) [8] = test: Postemergence herbicidal evaluation; format: in vivo, Oryza sativa, (L.) Tebonnet; conditions: postemergence
Outline: as §1

ORYSAT (Rice, Tebonnet) [9] = test: Preemergence herbicidal evaluation; format: in vivo, Oryza sativa, (L.) Tebonnet; conditions: rated 4-5 weeks after treatment
[10] = tested on: CYPSE (Cyperus serotinus); test: Flooded paddy, preemergence weed control; format: in vivo, Rottb.; conditions: rated 3-4 weeks after treatment, 0-9 rating scale
Outline: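 Seeds or propagules were planted 0.5 cm deep in silt loam and flooded to 1.5–3 cm. Compounds in 50/50 v/v aqueous/acetone were pipetted into the flood water at about 0.0080 to 0.1250 kg/ha. After 3–4 weeks in the greenhouse, effect was rated visually on a 0–9 scale versus untreated control.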

[11] = tested on: TRZAWR (Wheat, Winter, cv Riband); test: Postemergence herbicidal evaluation; format: in vivo, Triticum aestivum; conditions: postemergence
Outline: as §1

[12] = tested on: CASOB (Cassia obtusifolia); test: Postemergence herbicidal evaluation; format: in vivo, L.; conditions: postemergence
Outline: as §1

[13] = tested on: AMBEL (Ambrosia artemisifolia); test: Postemergence herbicidal evaluation; format: in vivo, L.; conditions: postemergence
Outline: as §1

[14] = tested on: CHEAL (Chenopodium album); test: Postemergence herbicidal evaluation; format: in vivo, L.; conditions: postemergence
Outline: as §1

[15] = tested on: TRZAWR (Wheat, Winter, cv Riband); test: Preemergence herbicidal evaluation; format: in vivo, Triticum aestivum; conditions: rated 4-5 weeks after treatment
Outline: as §3

[16] = tested on: ECHORC (Echinochloa oryzoides); test: Flooded paddy, preemergence weed control; format: in vivo, Echinochloa oryzoides (Ard.) Fritsch.; conditions: rated 3-4 weeks after treatment, 0-9 rating scale
Outline: as §2

[17] = tested on: ABUTH (Abutilon theophrasti); test: Postemergence herbicidal evaluation; format: in vivo, Medic.; conditions: postemergence
Outline: as §1

[18] = tested on: ECHCG (Echinochloa crus-galli); test: Postemergence herbicidal evaluation; format: in vivo, (L.) Beau; conditions: postemergence
Outline: as §1

ZEAMX (Corn, Field) = test: Postemergence herbicidal evaluation; format: in vivo, Zea mays, L.; conditions: postemergence
Outline: as §1

Cn1c(C(F)(F)F)cc(=O)n(-c2ccc3snc(C4(C)OCCO4)c3c2)c1=O [Compound 54, 1-methyl-3-[3-(2-methyl-1,3-dioxolan-2-yl)-1,2-benzisothiazol-5-yl]-6-(trifluoromethyl)uracil]
0.0: herbicidal rating, SAGPY ([4]; rate 0.0080 kg/ha)
6.5: ORYSAT herbicidal rating (ORYSAT (Rice, Tebonnet) [8]; rate 0.0620 kg/ha) | TRZAWR herbicidal rating ([11]; rate 0.0620 kg/ha)
1.0: ECHCG herbicidal rating ([18]; rate 0.0320 kg/ha)
7.5: TRZAWR herbicidal rating ([11]; rate 0.1250 kg/ha)
7.0: herbicidal rating, ORYSAT (rice tolerance) (ORYSAT (Rice, Tebonnet) [3]; rate 0.0080 kg/ha) | herbicidal rating, SAGPY ([4]; rate 0.0320 kg/ha) | ORYSAT herbicidal rating (ORYSAT (Rice, Tebonnet) [8]; rate 0.1250 kg/ha)
8.5: herbicidal rating, ORYSAT (rice tolerance) (ORYSAT (Rice, Tebonnet) [3]; rate 0.0320 kg/ha)
4.0: ZEAMX herbicidal rating (ZEAMX (Corn, Field); rate 0.0320 kg/ha) | ZEAMX herbicidal rating (ZEAMX (Corn, Field); rate 0.0620 kg/ha)
5.5: ZEAMX herbicidal rating (ZEAMX (Corn, Field); rate 0.1250 kg/ha)
3.0: ECHCG herbicidal rating ([18]; rate 0.0620 kg/ha) | ECHCG herbicidal rating ([18]; rate 0.1250 kg/ha)
5.0: ORYSAT herbicidal rating (ORYSAT (Rice, Tebonnet) [8]; rate 0.0320 kg/ha) | TRZAWR herbicidal rating ([11]; rate 0.0320 kg/ha) | CHEAL herbicidal rating ([14]; rate 0.0320 kg/ha)
8.0: herbicidal rating, ECHORC ([16]; rate 0.0080 kg/ha) | herbicidal rating, ECHORC ([16]; rate 0.0320 kg/ha)
9.0: IPOHE herbicidal rating ([1]; rate 0.0320 kg/ha) | IPOHE herbicidal rating ([1]; rate 0.0620 kg/ha) | IPOHE herbicidal rating ([1]; rate 0.1250 kg/ha) | Preemergence herbicidal rating ABUTH ([2]; Rate 0.0620 kg/ha) | Preemergence herbicidal rating ABUTH ([2]; Rate 0.1250 kg/ha) | Preemergence herbicidal rating ABUTH ([2]; Rate 0.2500 kg/ha) | herbicidal rating, ORYSAT (rice tolerance) (ORYSAT (Rice, Tebonnet) [3]; rate 0.1250 kg/ha) | herbicidal rating, SAGPY ([4]; rate 0.1250 kg/ha) | Preemergence herbicidal rating CASOB ([5]; Rate 0.0620 kg/ha) | Preemergence herbicidal rating CASOB ([5]; Rate 0.1250 kg/ha) | Preemergence herbicidal rating CASOB ([5]; Rate 0.2500 kg/ha) | Preemergence herbicidal rating AMBEL ([6]; Rate 0.0620 kg/ha) | Preemergence herbicidal rating AMBEL ([6]; Rate 0.1250 kg/ha) | Preemergence herbicidal rating AMBEL ([6]; Rate 0.2500 kg/ha) | Preemergence herbicidal rating CHEAL ([7]; Rate 0.0620 kg/ha) | Preemergence herbicidal rating CHEAL ([7]; Rate 0.1250 kg/ha) | Preemergence herbicidal rating CHEAL ([7]; Rate 0.2500 kg/ha) | Preemergence herbicidal rating ORYSAT (ORYSAT (Rice, Tebonnet) [9]; Rate 0.0620 kg/ha) | Preemergence herbicidal rating ORYSAT (ORYSAT (Rice, Tebonnet) [9]; Rate 0.1250 kg/ha) | Preemergence herbicidal rating ORYSAT (ORYSAT (Rice, Tebonnet) [9]; Rate 0.2500 kg/ha) | herbicidal rating, CYPSE ([10]; rate 0.0320 kg/ha) | herbicidal rating, CYPSE ([10]; rate 0.1250 kg/ha) | CASOB herbicidal rating ([12]; rate 0.0620 kg/ha) | CASOB herbicidal rating ([12]; rate 0.1250 kg/ha) | AMBEL herbicidal rating ([13]; rate 0.0320 kg/ha) | AMBEL herbicidal rating ([13]; rate 0.0620 kg/ha) | AMBEL herbicidal rating ([13]; rate 0.1250 kg/ha) | CHEAL herbicidal rating ([14]; rate 0.0620 kg/ha) | CHEAL herbicidal rating ([14]; rate 0.1250 kg/ha) | Preemergence herbicidal rating TRZAWR ([15]; Rate 0.0620 kg/ha) | Preemergence herbicidal rating TRZAWR ([15]; Rate 0.1250 kg/ha) | Preemergence herbicidal rating TRZAWR ([15]; Rate 0.2500 kg/ha) | herbicidal rating, ECHORC ([16]; rate 0.1250 kg/ha) | ABUTH herbicidal rating ([17]; rate 0.0320 kg/ha) | ABUTH herbicidal rating ([17]; rate 0.0620 kg/ha) | ABUTH herbicidal rating ([17]; rate 0.1250 kg/ha)
2.0: CASOB herbicidal rating ([12]; rate 0.0320 kg/ha)
